In ChEMBL document CHEMBL5352410, “Discovery of novel selenium-containing azole derivatives as antifungal agents by exploiting the hydrophobic cleft of CYP51” (Eur J Med Chem, 2022):
In brackets after ≈: the same amount, converted by molar mass.

Assays:
Candida albicans [1] = test: Fungicidal activity against Candida albicans; type: functional
[2] = Metabolic stability in mouse liver microsome assessed as clearance; type: ADME; conditions: liver microsomes, read-out: CLH
Candida albicans [3] = test: Fungicidal activity against FCZ-resistant Candida albicans CaR; type: functional
Candida albicans [4] = test: Fungicidal activity against FCZ-resistant Candida albicans 17#; type: functional
Candida albicans [5] = test: Antibiofilm activity against Candida albicans CPCC400616 assessed as sessile minimum inhibitory concentration measured after 24 hrs by XTT assay; type: functional
Candida albicans [6] = test: Antifungal activity against FCZ-resistant Candida albicans 904 by CLSI based broth microdilution method; type: functional
Candida albicans [7] = test: Antibiofilm activity against Candida albicans SC5314 assessed as sessile minimum inhibitory concentration measured after 6 hrs by XTT assay; type: functional
Candida albicans [8] = test: Fungicidal activity against FCZ-resistant Candida albicans 632; type: functional
Candida albicans [9] = test: Fungicidal activity against FCZ-resistant Candida albicans 901; type: functional
Candida albicans [10] = test: Antibiofilm activity against Candida albicans CPCC400616 assessed as sessile minimum inhibitory concentration measured after 1.5 hrs by XTT assay; type: functional
[11] = Cytotoxicity against human PC-3 cells by MTT assay; type: toxicity, cell-based
Candida albicans [12] = test: Antibiofilm activity against Candida albicans SC5314 assessed as sessile minimum inhibitory concentration measured after 3 hrs by XTT assay; type: functional
Candida albicans [13] = test: Antibiofilm activity against Candida albicans SC5314 assessed as sessile minimum inhibitory concentration measured after 24 hrs by XTT assay; type: functional
Candida albicans [14] = test: Antifungal activity against FCZ-resistant Candida albicans 17# by CLSI based broth microdilution method; type: functional
Candida albicans [15] = test: Antifungal activity against FCZ-resistant Candida albicans 632 by CLSI based broth microdilution method; type: functional
Candida albicans [16] = test: Antifungal activity against FCZ-resistant Candida albicans 901 by CLSI based broth microdilution method; type: functional
[17] = Cytotoxicity against human MDA-MB-231 cells by MTT assay; type: toxicity, cell-based
Candida albicans [18] = test: Fungicidal activity against FCZ-resistant Candida albicans 904; type: functional
[19] = Metabolic stability in mouse liver microsome assessed as half life; type: ADME; conditions: liver microsomes
Candida albicans [20] = test: Antibiofilm activity against Candida albicans SC5314 assessed as sessile minimum inhibitory concentration measured after 1.5 hrs by XTT assay; type: functional
[21] = Cytotoxicity against human HL-60 cells by MTT assay; type: toxicity, cell-based
Candida albicans [22] = test: Fungicidal activity against Candida albicans sc5314; type: functional
Candida albicans [23] = test: Antibiofilm activity against Candida albicans CPCC400616 assessed as sessile minimum inhibitory concentration measured after 6 hrs by XTT assay; type: functional
Candida albicans [24] = test: Antibiofilm activity against Candida albicans CPCC400616 assessed as sessile minimum inhibitory concentration measured after 3 hrs by XTT assay; type: functional
Candida albicans [25] = test: Antifungal activity against FCZ-resistant Candida albicans CaR by CLSI based broth microdilution method; type: functional
Pichia kudriavzevii = test: Antifungal activity against Pichia kudriavzevii by CLSI based broth microdilution method; type: functional
Cryptococcus neoformans = test: Antifungal activity against Cryptococcus neoformans by CLSI based broth microdilution method; type: functional
Candida parapsilosis = test: Antifungal activity against Candida parapsilosis by CLSI based broth microdilution method; type: functional; conditions: Lodderomyces parapsilosis
Candida albicans [26] = test: Antifungal activity against Candida albicans by CLSI based broth microdilution method; type: functional
[Candida] zeylanoides = Antifungal activity against Candida zeylanoides by CLSI based broth microdilution method; type: functional; conditions: Dujonia zeylanoides
Nakaseomyces glabratus = test: Antifungal activity against Candida glabrata by CLSI based broth microdilution method; type: functional
Aspergillus fumigatus = test: Antifungal activity against Aspergillus fumigatus by CLSI based broth microdilution method; type: functional
Candida albicans [27] = test: Antifungal activity against Candida albicans sc5314 by CLSI based broth microdilution method; type: functional

In the case of `Cc1ccc(C(Cn2ccnc2)[Se][Se]C(Cn2ccnc2)c2ccc(C)cc2)cc1` (stereo not given), the MFC (Candida albicans [1]) is reported as 64 µg/mL (≈ 121 µM), the CLint scaled [2] is reported as 68.9 mL/min/kg and the MFC (Candida albicans [3]) is reported as > 64 µg/mL. For the same compound, the MFC (Candida albicans [4]) was > 64 µg/mL, the MIC50 (Candida albicans [5]) was 4 µg/mL (≈ 7.57 µM) and the MIC80 (Candida albicans [5]) was 128 µg/mL (≈ 242 µM). The MIC (Candida albicans [6]) was 4 µg/mL (≈ 7.57 µM), the MIC50 (Candida albicans [7]) was 2 µg/mL (≈ 3.78 µM) and the MIC80 (Candida albicans [7]) was 8 µg/mL (≈ 15.1 µM). The MFC (Candida albicans [8]) was 8 µg/mL (≈ 15.1 µM), the MFC (Candida albicans [9]) was 8 µg/mL (≈ 15.1 µM) and the MIC50 (Candida albicans [10]) was 1 µg/mL (≈ 1.89 µM). For the same compound, the MIC80 (Candida albicans [10]) was 8 µg/mL (≈ 15.1 µM), the IC50 [11] was 7.43 µM and the MIC50 (Candida albicans [12]) was 2 µg/mL (≈ 3.78 µM). It also gave an MIC80 (Candida albicans [12]) of 4 µg/mL (≈ 7.57 µM), an MIC50 (Candida albicans [13]) of 2 µg/mL (≈ 3.78 µM) and an MIC80 (Candida albicans [13]) of 4 µg/mL (≈ 7.57 µM). The MIC (Candida albicans [14]) was 32 µg/mL (≈ 60.6 µM), the MIC (Candida albicans [15]) was 4 µg/mL (≈ 7.57 µM) and the MIC (Candida albicans [16]) was 4 µg/mL (≈ 7.57 µM). The IC50 [17] was 5.04 µM, the MFC (Candida albicans [18]) was 8 µg/mL (≈ 15.1 µM) and the half-life [19] was 21.2 min. For the same compound, the MIC50 (Candida albicans [20]) was 1 µg/mL (≈ 1.89 µM), the MIC80 (Candida albicans [20]) was 4 µg/mL (≈ 7.57 µM) and the IC50 [21] was 14.7 µM. It also gave an MFC (Candida albicans [22]) of 8 µg/mL (≈ 15.1 µM), an MIC50 (Candida albicans [23]) of 1 µg/mL (≈ 1.89 µM) and an MIC80 (Candida albicans [23]) of 32 µg/mL (≈ 60.6 µM). For the same compound, the MIC50 (Candida albicans [24]) was 2 µg/mL (≈ 3.78 µM), the MIC80 (Candida albicans [24]) was 8 µg/mL (≈ 15.1 µM) and the MIC (Candida albicans [25]) was 2 µg/mL (≈ 3.78 µM).
With `Cc1ccc(C(Cn2ccnc2)[Se]C(Cn2ccnc2)c2ccc(C)cc2)cc1` (stereo not given) the MFC (Candida albicans [1]) was 64 µg/mL (≈ 142 µM), the MFC (Candida albicans [3]) was > 64 µg/mL and the MFC (Candida albicans [4]) was > 64 µg/mL. It also gave an MIC50 (Candida albicans [5]) of 4 µg/mL (≈ 8.9 µM), an MIC80 (Candida albicans [5]) of 16 µg/mL (≈ 35.6 µM) and an MIC (Pichia kudriavzevii) of 16 µg/mL (≈ 35.6 µM). For the same compound, the MIC (Candida albicans [6]) was 4 µg/mL (≈ 8.9 µM), the MIC50 (Candida albicans [7]) was 1 µg/mL (≈ 2.22 µM) and the MIC80 (Candida albicans [7]) was 4 µg/mL (≈ 8.9 µM). For the same compound, the MFC (Candida albicans [8]) was 8 µg/mL (≈ 17.8 µM), the MFC (Candida albicans [9]) was 8 µg/mL (≈ 17.8 µM) and the MIC50 (Candida albicans [10]) was 1 µg/mL (≈ 2.22 µM). The MIC80 (Candida albicans [10]) was 4 µg/mL (≈ 8.9 µM), the IC50 [11] was 1.11 µM and the MIC50 (Candida albicans [12]) was 1 µg/mL (≈ 2.22 µM). For the same compound, the MIC80 (Candida albicans [12]) was 4 µg/mL (≈ 8.9 µM), the MIC50 (Candida albicans [13]) was 2 µg/mL (≈ 4.45 µM) and the MIC80 (Candida albicans [13]) was 4 µg/mL (≈ 8.9 µM). The MIC (Candida albicans [14]) was 0.5 µg/mL (≈ 1.11 µM), the MIC (Cryptococcus neoformans) was 32 µg/mL (≈ 71.2 µM) and the MIC (Candida albicans [15]) was 4 µg/mL (≈ 8.9 µM). It also gave an MIC (Candida albicans [16]) of 4 µg/mL (≈ 8.9 µM), an MIC (Candida parapsilosis) of 4 µg/mL (≈ 8.9 µM) and an IC50 [17] of 4.21 µM. For the same compound, the MFC (Candida albicans [18]) was 8 µg/mL (≈ 17.8 µM), the MIC50 (Candida albicans [20]) was 1 µg/mL (≈ 2.22 µM) and the MIC80 (Candida albicans [20]) was 4 µg/mL (≈ 8.9 µM). It also gave an IC50 [21] of 8.13 µM, an MFC (Candida albicans [22]) of 16 µg/mL (≈ 35.6 µM) and an MIC50 (Candida albicans [23]) of 2 µg/mL (≈ 4.45 µM). For the same compound, the MIC80 (Candida albicans [23]) was 8 µg/mL (≈ 17.8 µM), the MIC (Candida albicans [26]) was 4 µg/mL (≈ 8.9 µM) and the MIC ([Candida] zeylanoides) was 2 µg/mL (≈ 4.45 µM). For the same compound, the MIC (Nakaseomyces glabratus) was 16 µg/mL (≈ 35.6 µM), the MIC (Aspergillus fumigatus) was > 64 µg/mL and the MIC50 (Candida albicans [24]) was 2 µg/mL (≈ 4.45 µM). For the same compound, the MIC80 (Candida albicans [24]) was 8 µg/mL (≈ 17.8 µM), the MIC (Candida albicans [25]) was 2 µg/mL (≈ 4.45 µM) and the MIC (Candida albicans [27]) was 4 µg/mL (≈ 8.9 µM).
With `Fc1ccc(C(Cn2ccnc2)[Se]C(Cn2ccnc2)c2ccc(F)cc2)cc1` (stereo not given) the MFC (Candida albicans [1]) was 64 µg/mL (≈ 140 µM), the MFC (Candida albicans [3]) was > 64 µg/mL and the MFC (Candida albicans [4]) was > 64 µg/mL. For the same compound, the MIC (Pichia kudriavzevii) was 32 µg/mL (≈ 70 µM), the MIC (Candida albicans [6]) was 32 µg/mL (≈ 70 µM) and the MFC (Candida albicans [8]) was 16 µg/mL (≈ 35 µM). The MFC (Candida albicans [9]) was 64 µg/mL (≈ 140 µM), the MIC (Candida albicans [14]) was 4 µg/mL (≈ 8.75 µM) and the MIC (Cryptococcus neoformans) was 64 µg/mL (≈ 140 µM). For the same compound, the MIC (Candida albicans [15]) was 4 µg/mL (≈ 8.75 µM), the MIC (Candida albicans [16]) was 16 µg/mL (≈ 35 µM) and the MIC (Candida parapsilosis) was 16 µg/mL (≈ 35 µM). The MFC (Candida albicans [18]) was > 64 µg/mL, the MFC (Candida albicans [22]) was 16 µg/mL (≈ 35 µM) and the MIC (Candida albicans [26]) was 4 µg/mL (≈ 8.75 µM). The MIC ([Candida] zeylanoides) was 4 µg/mL (≈ 8.75 µM), the MIC (Nakaseomyces glabratus) was 64 µg/mL (≈ 140 µM) and the MIC (Aspergillus fumigatus) was > 64 µg/mL. For the same compound, the MIC (Candida albicans [25]) was 2 µg/mL (≈ 4.37 µM) and the MIC (Candida albicans [27]) was 2 µg/mL (≈ 4.37 µM).
In the case of `Clc1ccc(C(Cn2ccnc2)[Se][Se]C(Cn2ccnc2)c2ccc(Cl)cc2)cc1` (stereo not given), the MFC (Candida albicans [1]) is reported as 64 µg/mL (≈ 112 µM), the CLint scaled [2] is reported as 25.4 mL/min/kg and the MFC (Candida albicans [3]) is reported as > 64 µg/mL. The MFC (Candida albicans [4]) was > 64 µg/mL, the MIC50 (Candida albicans [5]) was 32 µg/mL (≈ 56.2 µM) and the MIC80 (Candida albicans [5]) was 128 µg/mL (≈ 225 µM). The MIC (Candida albicans [6]) was 8 µg/mL (≈ 14.1 µM), the MIC50 (Candida albicans [7]) was 0.5 µg/mL (≈ 0.878 µM) and the MIC80 (Candida albicans [7]) was 4 µg/mL (≈ 7.03 µM). It also gave an MFC (Candida albicans [8]) of 8 µg/mL (≈ 14.1 µM), an MFC (Candida albicans [9]) of 4 µg/mL (≈ 7.03 µM) and an MIC50 (Candida albicans [10]) of 0.5 µg/mL (≈ 0.878 µM). It also gave an MIC80 (Candida albicans [10]) of 2 µg/mL (≈ 3.51 µM), an IC50 [11] of 2.91 µM and an MIC50 (Candida albicans [12]) of 0.5 µg/mL (≈ 0.878 µM). For the same compound, the MIC80 (Candida albicans [12]) was 4 µg/mL (≈ 7.03 µM), the MIC50 (Candida albicans [13]) was 0.5 µg/mL (≈ 0.878 µM) and the MIC80 (Candida albicans [13]) was 16 µg/mL (≈ 28.1 µM). The MIC (Candida albicans [14]) was 8 µg/mL (≈ 14.1 µM), the MIC (Candida albicans [15]) was 4 µg/mL (≈ 7.03 µM) and the MIC (Candida albicans [16]) was 1 µg/mL (≈ 1.76 µM). The IC50 [17] was 5.5 µM, the MFC (Candida albicans [18]) was 8 µg/mL (≈ 14.1 µM) and the half-life [19] was 24.4 min. It also gave an MIC50 (Candida albicans [20]) of 0.5 µg/mL (≈ 0.878 µM), an MIC80 (Candida albicans [20]) of 4 µg/mL (≈ 7.03 µM) and an IC50 [21] of 12.5 µM. For the same compound, the MFC (Candida albicans [22]) was 32 µg/mL (≈ 56.2 µM), the MIC50 (Candida albicans [23]) was 2 µg/mL (≈ 3.51 µM) and the MIC80 (Candida albicans [23]) was 32 µg/mL (≈ 56.2 µM). The MIC50 (Candida albicans [24]) was 0.5 µg/mL (≈ 0.878 µM), the MIC80 (Candida albicans [24]) was 4 µg/mL (≈ 7.03 µM) and the MIC (Candida albicans [25]) was 2 µg/mL (≈ 3.51 µM).
